In this test the target is T1, human GPR119 (Homo sapiens, UniProt Q8TDV5).
T1 construct: expressed in transfected cells
T1 sequence (Q8TDV5 1-335): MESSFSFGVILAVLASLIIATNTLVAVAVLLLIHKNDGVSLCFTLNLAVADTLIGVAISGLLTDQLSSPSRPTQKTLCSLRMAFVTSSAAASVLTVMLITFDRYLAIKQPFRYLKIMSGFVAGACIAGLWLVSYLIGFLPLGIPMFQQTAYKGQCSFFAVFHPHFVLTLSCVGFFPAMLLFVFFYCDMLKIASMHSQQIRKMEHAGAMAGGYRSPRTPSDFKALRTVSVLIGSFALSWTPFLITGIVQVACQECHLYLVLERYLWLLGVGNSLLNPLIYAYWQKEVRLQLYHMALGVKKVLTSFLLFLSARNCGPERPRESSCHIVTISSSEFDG
Kind of test: Intracellular cAMP increase in human GPR119 introduced cells (HitHunter cAMP XS+ Assay). It is filed as cell-based. To be noted: for EC50: Table 17, method similar to Example 86, hGPR119 stable cells, intracellular cAMP; for GPR119 agonist effect (in words): hGPR119 introduced cells, cAMP. The source says:
The GPR119 agonist effect was studied by measuring the effect of an analyte on increase of intracellular amount of cAMP in human GPR119 introduced cells. The testing method is described below.
(1) Construction of the Stable Cell Line Expressing Human G Protein-Coupled-Receptor 119 (hGPR119) Human GPR119 gene (NM 178471) is purchased from American Type Culture Collection (ATCC No. 10807349). Hind III site-added forward side primer ([…]: sequence No. 1) and Apa I site-added reverse side primer ([…]: sequence No. 2) are designed. The target gene is amplyfied by a polymerase chain reaction (PCR) method using KOD-Plus-Ver. 2 (TOYOBO #KOD-211). PCR is conducted by repeating three steps consisting of the step of 98° C.-10 seconds, the step of 55° C.-30 seconds, and the step of 68° C.-1 minute and 10 seconds in 35 cycles. The amplified PCR product is inserted into pcDNA5/FRT/TO (Invitrogen #V6520-20) plasmid. Cells, which can constantly express the target gene with tetracycline, are constructed using Flp-In T-REx-systen (invitorogen).
(2) Measurement of Intracellular Cyclic Adenosine Monophosphate (cAMP)
The hGPR119 introduced cells prepared in (1) are plated on a 96-well plate using Dulbecco's Modified Eagle Medium containing heat-inactived 10% fetal bovine serum. After incubation of 24 hours, tetracyclin (invitrogen #Q10019) is added to the culture medium to induce hGPR119 gene expression. After further incubation of 24 hours, the cells are stimulated with 0.5 mM 3-ISOBUTYL-1-METHYLXANTHINE (Sigma #17018) phosphate buffer containing the analyte at 37° C. for 30 minutes. The amount of the intracellular cAMP is measured by using FLUOstar Optima (BMG LABTECH) according to the protocol of HitHunter™ cAMP XS+Assay (GE Healthcare #90007503) to give the agonist activity of the analyte to the GPR119 receptor.
(1) Construction of the Stable Cell Line Expressing Human G-Protein Coupled Receptor 119 (hGPR119) hGPR119 gene (NM 178471) was purchased from American Type Culture Collection (ATCC No. 10807349). The forward primer that was added a HindIII site ([…] (sequence number 1)), and the reverse primer that was added an ApaI site ([…] (sequence number 2)) were designed, the target gene was amplified by polymerase chain reaction (PCR) using a KOD-Plus-Ver.2 (TOYOBO #KOD-211). PCR was repeated 3 steps (98° C. for 10 sec, 55° C. for 30 sec, 68° C. for 1 min 15 sec) by 35 cycles. Amplified PCR product was inserted in pcDNA5/FRT/TO (Invitrogen #V6520-20), and the stable cell line that expresses target gene when induced with tetracycline was created using the Flp-In T-Rex system (Invitrogen).
(2) Measuring Method of Intracellular Cyclic Adenosine Monophosphate (cAMP) hGPR119 stable cells made by above-mentioned (1) were plated on 96 well plates in Dulbecco's Modified Eagle Medium containing 10% heat-inactivated FBS. After 24 hours, the hGPR119 expression was induced by adding medium containing tetracycline (Invitrogen #Q10019) and incubating for another 24 hours. Following incubation, cells were stimulated by 0.5 mM 3-ISOBUTYL-1-METHYLXANTHINE (Sigma #17018) phosphate buffered saline containing test compound for 30 minutes at 37° C. Agonist activity of test compound to the GPR119 receptor was estimated by measuring the intracellular cAMP concentration using a Fluostar optima plate reader (BMG LABTECH) according to the manufacturer's protocol of the HitHunter™ cAMP XS+Assay (GE Healthcare #90007503).
The examination was performed by the method similar to Example 86 (Pharmacological experiment 1)-(1), -(2).

The source of these data is patent publication US20140018537A1, “GPR119 AGONIST” (NIPPON CHEMIPHAR CO., LTD., priority 2008, published 2014).

Structures are written as SMILES.

In turn, `CC(C)(C)OC(=O)N1CCC(c2cnc(COc3ccc(S(C)(=O)=O)cc3)c(F)c2)CC1` [Example 75, tert-Butyl 4-[3-fluoro-2-(4-methanesulfonylphenoxymethyl)pyridin-5-yl]piperidine-1-carboxylate] yielded an EC50 of 22.4 nM.
Same read-out and setting: with `CC(C)(C)OC(=O)N1CCC(c2cnc(COc3ccc(S(C)(=O)=O)cc3)c(C(F)(F)F)c2)CC1` [Example 73, tert-Butyl 4-[2-(4-methanesulfonylphenoxymethyl)-3-trifluoromethylpyridin-5-yl]piperidine-1-carboxylate] the figure was 48 nM.
Take `Cc1cc(C2CCN(C(=O)OC(C)(C)C)CC2)cnc1COc1ccc(-n2cnnn2)cc1F` [Example 83, tert-Butyl 4-[2-[2-fluoro-4-(tetrazol-1-yl)phenoxymethyl]-3-methylpyridin-5-yl]piperidine-1-carboxylate]: a half-maximal effect (EC50) was put at 21.9 nM and the “GPR119 agonist effect (in words)” value is recorded as “excellent GPR119 agonist effect”.
For `CC(C)(C)OC(=O)N1CCC(c2ccc(CCc3ccc(S(C)(=O)=O)cc3)nc2)CC1` [Example 79, tert-Butyl 4-[2-[2-(4-methanesulfonylphenyl)ethyl]pyridin-5-yl]piperidine-1-carboxylate], the EC50 worked out at 142 nM.
Same read-out and setting: in the case of `CC(C)(C)OC(=O)N1CCC(c2cnc(COc3ccc(S(C)(=O)=O)cc3)c(Cl)c2)CC1` [Example 71, tert-Butyl 4-[3-chloro-2-(4-methanesulfonylphenoxymethyl)pyridin-5-yl]piperidine-1-carboxylate] it was 29.3 nM.
Take `CC(C)(C)OC(=O)N1CCC(c2ccc(COc3ccc(S(C)(=O)=O)cc3Cl)nc2)CC1` [Example 25, tert-Butyl 4-[2-(2-chloro-4-methanesulfonylphenoxymethyl)pyridin-5-yl]piperidine-1-carboxylate]: the 50% effective concentration (EC50) came to 21.2 nM and the “GPR119 agonist effect (in words)” value is “excellent GPR119 agonist effect”.
`CC(C)(C)OC(=O)N1CCC(c2ccc(COc3ccc(-n4cnnn4)cc3)nc2)CC1` [Example 17, tert-Butyl 4-[2-[4-(tetrazol-1-yl)phenoxymethyl]pyridin-5-yl]piperidine-1-carboxylate] displayed a half-maximal effective concentration (EC50) of 34 nM.
`CC(C)(C)OC(=O)N1CCC(c2ccc(COc3ccc(S(C)(=O)=O)cc3F)nc2)CC1` [Example 12, tert-Butyl 4-[2-(2-fluoro-4-methanesulfonylphenoxymethyl)pyridin-5-yl]piperidine-1-carboxylate] displayed a 50% effective concentration (EC50) of 54.7 nM.
The same measure, in the same setting: in the case of `CC(C)(C)OC(=O)N1CCC(c2ccc(COc3ccc(S(C)(=O)=O)c(F)c3)nc2)CC1` [Example 18, tert-Butyl 4-[2-(3-fluoro-4-methanesulfonylphenoxymethyl)pyridin-5-yl]piperidine-1-carboxylate] it was 85.4 nM; in that of `Cc1cc(S(C)(=O)=O)ccc1OCc1ccc(C2CCN(C(=O)OC(C)(C)C)CC2)cn1` [Example 22, tert-Butyl 4-[2-(4-methanesulfonyl-2-methylphenoxymethyl)pyridin-5-yl]piperidine-1-carboxylate], 24 nM; in that of `CC(C)(C)OC(=O)N1CCC(c2ccc(COc3ccc(-n4cnnn4)cc3F)nc2)CC1` [Example 37, tert-Butyl 4-[2-[2-fluoro-4-(tetrazol-1-yl)phenoxymethyl]pyridin-5-yl]piperidine-1-carboxylate], 80.6 nM.
Compound `Cc1cc(S(C)(=O)=O)ccc1OCc1ncc(C2CCN(C(=O)OC(C)(C)C)CC2)cc1C` [Example 82, tert-Butyl 4-[2-(4-methanesulfonyl-2-methylphenoxymethyl)-3-methylpyridin-5-yl]piperidine-1-carboxylate] returned an EC50 of 58.8 nM.
On the same count and under the same terms, with `CCc1cnc(N2CCC(c3ccc(COc4ccc(-n5cnnn5)cc4)nc3)CC2)nc1` [Example 51, 5-Ethyl-2-[4-[2-[4-(tetrazol-1-yl)phenoxymethyl]pyridin-5-yl]piperidin-1-yl]pyrimidine] the figure was 257 nM.
